Assay results as given in US20250214978A1, “AT2R AGONIST” (WUHAN HUMANWELL INNOVATIVE DRUG RESEARCH AND DEVELOPMENT …, priority 2022, published 2025).
Read-outs that look alike come from different tables or passages of the source.

Columns and labels:
CYP2C8 = CYP2C8 (Homo sapiens (Human), UniProt P10632); experiment: CYP inhibition assay in mixed human liver microsomes; type: in vitro ADME; conditions: mixed (pooled) human liver microsomes, read-out: Inhibition rate % CYP2C8
Protocol: (§1) The inhibitory effects of the compounds on seven enzymes, i.e., CYP1A2, CYP2C9, CYP2C19, CYP2D6, CYP3A4 (midazolam), CYP2B6, and CYP2C8, were evaluated at a concentration of 10 μM. Mixed human liver microsomes, which were previously stored in a −80° C. refrigerator before use, were taken out and thawed in a water bath at 37° C. before use, and placed on ice for further operation. 100 μL of microsome working solution was taken, and added with 2 μL of test product or positive inhibitor working solution. 2 μL of solvent was added to the solvent control. The mixture was pre-incubated in a water bath at 37° C. for 10 minutes. After preincubation, 98 μL of NADPH regeneration solution was added to all samples to initiate the reaction. Then, the samples were put back into the water bath and incubated for a period of time. The reaction was quenched with 200 μL of stop solution. The plate was centrifuged at 3,220 g for 10 minutes, 100 μL of supernatant was transferred, and 100 μL of water was added and mixed well to the assay plate for LC/MS/MS analysis.

CYP2D6 = CYP2D6 (Homo sapiens (Human), UniProt P10635); experiment: as above; type: in vitro ADME; conditions: mixed (pooled) human liver microsomes, read-out: Inhibition rate % CYP2D6
Protocol: as §1

CYP2B6 = CYP2B6 (Homo sapiens (Human), UniProt P20813); experiment: as above; type: in vitro ADME; conditions: mixed (pooled) human liver microsomes, read-out: Inhibition rate % CYP2B6
Protocol: as §1

CYP1A2 = CYP1A2 (Homo sapiens (Human), UniProt P05177); experiment: as above; type: in vitro ADME
Protocol: as §1

CYP2C19 = CYP2C19 (Homo sapiens (Human), UniProt P33261); experiment: as above; type: in vitro ADME; conditions: mixed (pooled) human liver microsomes, read-out: Inhibition rate % CYP2C19
Protocol: as §1

CYP3A4 = CYP3A4 (Homo sapiens (Human), UniProt P08684); experiment: as above; type: in vitro ADME; conditions: mixed (pooled) human liver microsomes, probe midazolam, read-out: Inhibition rate % CYP3A4 (midazolam)
Protocol: as §1

CYP2C9 = CYP2C9 (Homo sapiens (Human), UniProt P11712); experiment: as above; type: in vitro ADME; conditions: mixed (pooled) human liver microsomes, read-out: Inhibition rate % CYP2C9
Protocol: as §1

[1] = Free plasma protein binding (PPB) assay, equilibrium dialysis; type: in vitro ADME; conditions: dialysis 6 hours at 37° C.
Protocol: The dried dialysis membrane was soaked in ultrapure water for 1 hour, then soaked in 20% ethanol for 20 minutes, and then rinsed with ultrapure water for 2 to 3 times. Finally, the dried dialysis membrane was soaked in ultrapure water for 20 minutes for later use. The frozen plasma was thawed in a water bath at 37° C. for about 20 minutes. pH value of the plasma was measured after thawing was complete, and was adjusted to 7.4 with 1% phosphoric acid solution or 0.1M sodium hydroxide solution. […] The pretreated dialysis membrane was assembled into the dialysis plate according to product instructions, and 100 μL of receiving solution (100 mM phosphate buffer solution plus 0.002% Tween 80) was added to one side of the permeable membrane in each dialysis well. 20 μL of each of the final solution of the test compound and the final solution of the control compound were taken in a 96-well sample plate, two duplicate samples were made, and T0 sample was obtained, which was stored in a −20° C. refrigerator. Another 100 μL of each of the above-mentioned final solutions were taken to the other side of the membrane in the dialysis device, two duplicate samples were made, and incubated at 37° C. with constant shaking for 6 hours. After 6 hours of incubation, 20 μL of each of the dialyzed receiving solution and the administered plasma were taken, two duplicate samples were made, and sample A and sample B were obtained. Corresponding blank plasma or receiving solution of corresponding volume were added to sample B and sample A, respectively, allowing the volume ratio of plasma to buffer in each sample well to be 1:1. 300 μL of sample-containing internal standard acetonitrile solution was added to all the sample wells. The mixture was mixed well, and centrifuged at 5,500×g for 10 minutes. 150 μL of corresponding ultrapure water was added to the corresponding sample wells of the 96-well sample plate. 150 μL of the supernatant was taken into the sample wells, and mixed well. Then, LC/MS/MS analysis was performed. The calculation formula of fu is: […]
where: CR: peak area ratio measured in the receiving chamber well CD: peak area ratio measured in the supply chamber well.

AT2R = AT2R (Homo sapiens (Human), UniProt P50052); experiment: Binding assay of compounds to AT2R (Tag-lite HTRF ligand binding kit); conditions: 1 hour incubation at room temperature
Protocol: The assay was performed in accordance with the instruction manual of Angiotensin AT2 Receptor Ligand Binding Assay Kit (#C1TT1AT2, Cisbio). First, a compound stock solution (10 mM) was diluted in a gradient at a 5× dilution ratio (including 10 concentrations, each with two replicates). 160 nL of compounds at different concentrations was added to a 384-well plate. 40 μL of 1×TLB was added to each well, and the mixture was shaken at room temperature for 15 minutes. 15 mL centrifuge tube added with 5 mL of 1×TLB was prepared in advance. The frozen labeled cells were thawed in a water bath at 37° C. (for 1 to 2 minutes), and the thawed cells were quickly transferred to the above 15 mL centrifuge tube. The mixture was mixed well and centrifuged at 1,000 g at room temperature for 5 minutes. The supernatant was removed, and the cells were resuspended by adding 2.7 mL 1×TLB. A new 384-well plate was taken, and 10 μL of mixed cells were added into the corresponding wells according to the assay design. 5 μL of 4× compound solution and 5 μL of 4× Tag-lite red fluorescent labeled ligand were added to each well. After incubation at room temperature for 1 hour, data were read using EnVision with an HTRF mode. The excitation light intensities at 665 nM and 615 nM in each well were read respectively, and the ratio was calculated (Ratio=A665nMIB615 nM). The IC50 value was calculated by means of GraphPad Prism8 software, where X represents logarithmic value of compound concentration; and Y represents ratio of A665 nM/B615 nM.

[2] = Liver microsome stability assay; type: in vitro ADME; conditions: Mouse liver microsomes; read-out: T1/2 (min) Mouse
[3] = Liver microsome stability assay; type: in vitro ADME; conditions: Rat liver microsomes; read-out: T1/2 (min) Rat
[4] = Liver microsome stability assay; type: in vitro ADME; conditions: dog; Canine liver microsomes; read-out: T1/2 (min) Canine
[5] = Liver microsome stability assay; type: in vitro ADME; conditions: Human liver microsomes, NADPH, 37° C.; read-out: T1/2 (min) Human
Protocol: The human liver microsome stability assay was performed by co-incubating the compound with human liver microsomes in vitro. The test compounds were first prepared as 10 mM stock solutions in DMSO solvent, and then diluted to 0.5 mM with acetonitrile. Human liver microsomes (Corning) were diluted with PBS to prepare a microsome/buffer solution, and this solution was used to dilute 0.5 mM of the compound to prepare a working solution. In the working solution, a concentration of the compound was 1.5 μM and a concentration of the human liver microsome was 0.75 mg/ml. A deep-well plate was taken, 30 μL of working solution was added to each well of the plate, and then 15 μL of pre-heated NADPH solution (6 mM) was added to start the reaction. The mixture was incubated at 37° C. 135 μL of acetonitrile was added to the corresponding wells to stop the reaction at 0 minute, 5 minutes, 15 minutes, 30 minute, and 45 minutes of incubation. Subsequent to the stop of the reaction by means of acetonitrile at the last time point of 45 minute, the plate was vortexed for 10 minutes (600 rpm/min) and then centrifuged for 15 minutes. […] The peak area ratios of the compound at 5 minutes, 15 minutes, 30 minutes, and 45 minutes were compared with the peak area ratio at 0 minute, and the remaining percentage of the compound at each time point was calculated. T1/2 was calculated using Graphpad8 software.

[6] = dog, pH 7.4, Canine plasma, read-out: fu % Canine
[7] = pH 7.4, Mouse plasma, read-out: fu % Mouse
[8] = pH 7.4, Rat plasma, read-out: fu % Rat
[9] = pH 7.4, Human plasma, read-out: fu % Human

Sequence of CYP2B6 (P20813 whole entry): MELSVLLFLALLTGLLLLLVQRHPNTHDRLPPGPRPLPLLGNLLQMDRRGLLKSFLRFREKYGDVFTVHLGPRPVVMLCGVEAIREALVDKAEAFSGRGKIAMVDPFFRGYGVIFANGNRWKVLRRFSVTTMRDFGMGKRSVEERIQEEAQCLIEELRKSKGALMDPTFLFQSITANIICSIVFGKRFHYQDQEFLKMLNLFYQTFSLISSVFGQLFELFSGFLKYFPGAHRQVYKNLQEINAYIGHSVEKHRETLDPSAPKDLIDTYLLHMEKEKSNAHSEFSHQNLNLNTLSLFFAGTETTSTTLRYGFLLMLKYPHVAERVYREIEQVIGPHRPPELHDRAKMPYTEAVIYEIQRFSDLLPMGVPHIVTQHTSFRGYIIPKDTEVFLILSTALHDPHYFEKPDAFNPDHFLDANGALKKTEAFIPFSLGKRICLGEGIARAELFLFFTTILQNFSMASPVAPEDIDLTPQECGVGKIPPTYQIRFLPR
Sequence of CYP2D6 (P10635 whole entry): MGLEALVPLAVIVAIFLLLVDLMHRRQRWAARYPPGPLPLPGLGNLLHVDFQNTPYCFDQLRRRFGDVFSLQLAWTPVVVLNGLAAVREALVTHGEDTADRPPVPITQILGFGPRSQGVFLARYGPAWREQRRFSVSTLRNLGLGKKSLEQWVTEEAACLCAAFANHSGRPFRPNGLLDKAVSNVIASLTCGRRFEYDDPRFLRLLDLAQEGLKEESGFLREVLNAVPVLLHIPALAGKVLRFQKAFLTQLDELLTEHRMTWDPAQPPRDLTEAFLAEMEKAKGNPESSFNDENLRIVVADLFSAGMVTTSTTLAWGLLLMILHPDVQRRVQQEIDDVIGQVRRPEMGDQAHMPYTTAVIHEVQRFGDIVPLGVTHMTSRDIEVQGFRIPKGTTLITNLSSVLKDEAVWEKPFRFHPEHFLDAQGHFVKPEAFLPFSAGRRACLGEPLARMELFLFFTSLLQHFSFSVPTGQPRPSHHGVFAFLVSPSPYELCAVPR
Sequence of CYP2C8 (P10632 whole entry): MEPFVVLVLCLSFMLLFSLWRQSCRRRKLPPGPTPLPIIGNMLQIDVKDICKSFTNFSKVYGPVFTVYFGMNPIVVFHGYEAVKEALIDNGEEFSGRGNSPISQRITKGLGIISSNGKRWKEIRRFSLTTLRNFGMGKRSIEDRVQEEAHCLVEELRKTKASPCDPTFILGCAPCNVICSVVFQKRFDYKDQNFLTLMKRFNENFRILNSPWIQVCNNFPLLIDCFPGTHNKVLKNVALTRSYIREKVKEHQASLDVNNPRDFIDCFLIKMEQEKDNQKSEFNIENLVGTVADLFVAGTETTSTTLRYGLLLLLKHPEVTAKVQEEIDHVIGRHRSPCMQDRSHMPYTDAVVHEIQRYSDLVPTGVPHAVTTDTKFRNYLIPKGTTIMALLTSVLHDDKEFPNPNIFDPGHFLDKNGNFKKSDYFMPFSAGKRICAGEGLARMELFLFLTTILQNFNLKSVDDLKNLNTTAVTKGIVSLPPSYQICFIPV
Sequence of CYP2C19 (P33261 whole entry): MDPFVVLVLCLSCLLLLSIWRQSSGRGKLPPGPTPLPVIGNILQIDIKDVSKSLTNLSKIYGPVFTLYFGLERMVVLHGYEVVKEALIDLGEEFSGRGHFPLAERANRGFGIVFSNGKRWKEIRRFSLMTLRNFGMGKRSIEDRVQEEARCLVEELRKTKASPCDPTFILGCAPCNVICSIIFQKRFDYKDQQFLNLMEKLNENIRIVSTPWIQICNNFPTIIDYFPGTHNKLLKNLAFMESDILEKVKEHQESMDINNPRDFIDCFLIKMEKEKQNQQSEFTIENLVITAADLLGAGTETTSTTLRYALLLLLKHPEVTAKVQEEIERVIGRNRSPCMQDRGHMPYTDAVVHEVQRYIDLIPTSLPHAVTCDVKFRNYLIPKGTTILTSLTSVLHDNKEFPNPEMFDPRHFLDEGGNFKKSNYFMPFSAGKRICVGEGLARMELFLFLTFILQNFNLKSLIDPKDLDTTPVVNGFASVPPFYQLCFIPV
Sequence of AT2R (P50052 whole entry): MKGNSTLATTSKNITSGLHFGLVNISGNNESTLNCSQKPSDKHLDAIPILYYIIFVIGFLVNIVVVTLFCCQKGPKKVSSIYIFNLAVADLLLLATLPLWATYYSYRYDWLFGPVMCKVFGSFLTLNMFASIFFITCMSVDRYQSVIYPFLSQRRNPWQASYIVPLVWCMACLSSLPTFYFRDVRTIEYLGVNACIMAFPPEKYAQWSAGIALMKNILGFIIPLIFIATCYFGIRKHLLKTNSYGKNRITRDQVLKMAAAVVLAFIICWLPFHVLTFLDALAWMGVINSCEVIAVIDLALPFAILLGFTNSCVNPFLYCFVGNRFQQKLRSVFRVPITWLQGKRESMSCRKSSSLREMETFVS
Sequence of CYP1A2 (P05177 whole entry): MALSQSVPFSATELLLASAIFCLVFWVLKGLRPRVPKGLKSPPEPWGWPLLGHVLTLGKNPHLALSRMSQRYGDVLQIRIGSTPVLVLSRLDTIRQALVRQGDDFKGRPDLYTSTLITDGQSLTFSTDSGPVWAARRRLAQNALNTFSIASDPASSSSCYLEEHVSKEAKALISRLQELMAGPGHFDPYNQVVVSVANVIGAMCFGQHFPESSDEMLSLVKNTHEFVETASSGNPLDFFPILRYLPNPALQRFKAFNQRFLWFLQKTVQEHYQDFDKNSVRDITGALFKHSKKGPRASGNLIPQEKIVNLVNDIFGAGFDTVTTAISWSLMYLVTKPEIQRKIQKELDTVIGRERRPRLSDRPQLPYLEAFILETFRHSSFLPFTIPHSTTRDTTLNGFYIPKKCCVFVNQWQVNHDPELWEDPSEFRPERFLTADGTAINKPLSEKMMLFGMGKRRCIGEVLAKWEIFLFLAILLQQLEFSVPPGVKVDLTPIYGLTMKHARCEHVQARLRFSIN
Sequence of CYP3A4 (P08684 whole entry): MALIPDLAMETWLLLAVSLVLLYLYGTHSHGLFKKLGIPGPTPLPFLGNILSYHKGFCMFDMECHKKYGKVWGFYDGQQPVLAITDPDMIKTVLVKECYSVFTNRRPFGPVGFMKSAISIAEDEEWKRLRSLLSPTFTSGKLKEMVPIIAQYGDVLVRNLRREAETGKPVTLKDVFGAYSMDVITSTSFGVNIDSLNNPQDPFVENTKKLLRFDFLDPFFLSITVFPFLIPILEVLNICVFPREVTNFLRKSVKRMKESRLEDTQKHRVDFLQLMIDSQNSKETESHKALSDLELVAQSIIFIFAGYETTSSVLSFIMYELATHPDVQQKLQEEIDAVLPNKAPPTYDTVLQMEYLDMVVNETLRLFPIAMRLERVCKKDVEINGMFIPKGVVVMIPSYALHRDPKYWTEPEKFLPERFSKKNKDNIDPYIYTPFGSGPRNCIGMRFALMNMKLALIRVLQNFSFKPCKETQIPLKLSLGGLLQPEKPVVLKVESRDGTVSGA
Sequence of CYP2C9 (P11712 whole entry): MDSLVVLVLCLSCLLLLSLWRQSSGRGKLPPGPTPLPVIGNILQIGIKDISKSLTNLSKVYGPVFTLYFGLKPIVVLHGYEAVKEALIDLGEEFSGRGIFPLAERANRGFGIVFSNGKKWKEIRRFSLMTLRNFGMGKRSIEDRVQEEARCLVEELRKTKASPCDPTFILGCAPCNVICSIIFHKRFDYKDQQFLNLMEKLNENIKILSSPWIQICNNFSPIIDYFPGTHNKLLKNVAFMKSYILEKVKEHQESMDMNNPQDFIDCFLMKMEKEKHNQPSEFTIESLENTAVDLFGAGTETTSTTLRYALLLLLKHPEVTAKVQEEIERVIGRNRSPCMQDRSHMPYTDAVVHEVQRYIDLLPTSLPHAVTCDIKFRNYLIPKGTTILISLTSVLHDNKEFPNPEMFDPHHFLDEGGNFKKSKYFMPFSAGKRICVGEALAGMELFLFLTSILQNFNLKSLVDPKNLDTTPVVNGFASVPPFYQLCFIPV

Row | SMILES | inhibition at 10 µM (CYP2C8) [%] | inhibition at 10 µM (CYP2D6) [%] | inhibition at 10 µM (CYP2B6) [%] | inhibition at 10 µM (CYP1A2) [%] | inhibition at 10 µM (CYP2C19) [%] | inhibition at 10 µM (CYP3A4) [%] | inhibition at 10 µM (CYP2C9) [%] | fraction unbound at 6 h, 1 μM [1, 6] | fraction unbound at 6 h, 1 μM [1, 7] | fraction unbound at 6 h, 1 μM [1, 8] | IC50 (AT2R) [nM] | half-life at 1 μM [2] [min] | half-life at 1 μM [3] [min] | fraction unbound at 6 h, 1 μM [1, 9] | half-life at 1 μM [4] [min] | half-life at 1 μM [5] [min]
1 | COC(=O)NS(=O)(=O)c1sc(CC(C)C)c(C)c1-c1ccc(Cn2ccnc2C)cc1 [Compound I-16, Methyl (5-isobutyl-4-methyl-3-(4-((2-methyl-1H-imidazol-1-yl)methyl)phenyl)thiophen-2-yl)sulfonylcarbamate] | 33.6 | 9.54 | 11.1 | 25 | 35.3 | 6.78 | 46.8 | 0.0349 | – | 0.0109 | 2.68 | 1730 | 83.5 | 0.0126 | 578 | 239
2 | COC(=O)NS(=O)(=O)c1sc(CC(C)C)cc1-c1ccc(Cn2ccnc2C)cc1C [Compound I-11, Methyl (5-isobutyl-3-(2-methyl-4-((2-methyl-1H-imidazol-1-yl)methyl)phenyl)thiophen-2-yl)sulfonylcarbamate] | 12.6 | 1.97 | 27.6 | 0 | 11 | 13.4 | 28.3 | 0.0185 | 0.0121 | 0.0097 | 1.51 | – | – | 0.0039 | – | –

The next lines start with the values.

Row | inhibition at 10 µM (CYP2C8) [%] | inhibition at 10 µM (CYP2D6) [%] | inhibition at 10 µM (CYP2B6) [%] | inhibition at 10 µM (CYP1A2) [%] | inhibition at 10 µM (CYP2C19) [%] | inhibition at 10 µM (CYP3A4) [%] | inhibition at 10 µM (CYP2C9) [%] | fraction unbound at 6 h, 1 μM [1, 6] | fraction unbound at 6 h, 1 μM [1, 7] | fraction unbound at 6 h, 1 μM [1, 8] | IC50 (AT2R) [nM] | half-life at 1 μM [2] [min] | half-life at 1 μM [3] [min] | fraction unbound at 6 h, 1 μM [1, 9] | half-life at 1 μM [4] [min] | half-life at 1 μM [5] [min] | SMILES
3 | 82.7 | 6.5 | 18.3 | 0.54 | 11.7 | 0 | 20.2 | 0.0116 | 0.0211 | 0.0043 | 1.72 | – | – | – | – | – | COC(=O)NS(=O)(=O)c1sc(CC(C)C)cc1-c1ccc(Cn2ccnc2C(C)(C)C)c(C#N)c1 [Compound I-13, Methyl ((3-(4-((2-(tert-butyl)-1H-imidazol-1-yl)methyl)-3-cyanophenyl)-5-isobutylthiophen-2-yl)sulfonyl)carbamate]
4 | 50.6 | 11.4 | 16.9 | 0 | 21.7 | 0 | 32.8 | – | 0.0427 | – | 1.68 | – | – | – | – | – | CCc1nccn1Cc1ccc(-c2cc(CC(C)C)sc2S(=O)(=O)NC(=O)OC)cc1C#N [Compound I-14, Methyl ((3-(3-cyano-4-((2-ethyl-1H-imidazol-1-yl)methyl)phenyl)-5-isobutylthiophen-2-yl)sulfonyl)carbamate]
5 | 39.5 | 10.4 | 31.6 | 4.18 | 30.2 | 21.1 | 45.8 | – | – | – | 1.35 | – | – | – | – | – | CCCCOC(=O)NS(=O)(=O)c1sc(CC(C)C)cc1-c1ccc(Cn2ccnc2C)c(C#N)c1 [Compound I-12, Butyl ((3-(3-cyano-4-((2-methyl-1H-imidazol-1-yl)methyl)phenyl)-5-isobutylthiophen-2-yl)sulfonyl)carbamate]
